Literature values as cited in patent US20100028296A1, “Use of cytokine-derived peptides in treatment of pain and neurodegenerative disease” (priority 2005, published 2010).
Where no end group is shown, it is not given here.

What was measured:
[1] = test system: chronic constriction injury model of neuropathic pain; settings: in vivo
[2] = test system: immunomodulatory functions known for human IL-10; settings: at generally different dosage levels
[3] = native dimer, approximately 37 kDa
[4] = test system: excitotoxic spinal cord injury; settings: given 30 minutes following injury
[5] = test system: dynorphin-induced, IL-1β-mediated mechanical allodynia; settings: intrathecal; administered 30 minutes or 6 hours after induction of allodynia

Compound: O=C1CCC(N2C(=O)c3ccccc3C2=O)C(=O)N1 (stereo not drawn) [thalidomide]
- mechanical allodynia [1]: reduces
- thermal hyperalgesia [1]: reduces

Compound: AYMTMKIRN [IT, C-terminal nonapeptide from human IL-10 protein]
- functional activities compared with intact IL-10 [2]: shares some, but not all, of the functional activities of intact IL-10

Compound: IL-10: anti-inflammatory cytokine, dimer of approximately 37 kDa in its native state
- crossing of the intact blood brain barrier [3]: does not cross the intact blood brain barrier in appreciable amounts
- pathological pain behaviors [4]: decreased pathological pain behaviors
- onset of mechanical allodynia [5]: blocks the onset
